Experimental data: ChEMBL document CHEMBL4373665, “Discovery of new non-acidic lonazolac analogues with COX-2 selectivity as potent anti-inflammatory agents” (Medchemcomm, 2019)
pIC50: −log10 of the molar value.

Legend:
[1] = Ulcerogenic activity in rat assessed as effect on mucosal blood vessel at 50 mg/kg by hematoxylin and eosin staining based assay; format: toxicity, organism-based; conditions: in vivo
[2] = molecular target: Prostaglandin G/H synthase 1 (Homo sapiens, UniProt P23219); assay: Inhibition of human recombinant COX1 assessed as decrease in prostaglandin production using arachidonic acid as substrate pretreated for 15 mins followed by substrate addition and measured after 2 mins by enzyme immunoassay; format: single protein
Prostaglandin G/H synthase 1, sequence (P23219 whole entry): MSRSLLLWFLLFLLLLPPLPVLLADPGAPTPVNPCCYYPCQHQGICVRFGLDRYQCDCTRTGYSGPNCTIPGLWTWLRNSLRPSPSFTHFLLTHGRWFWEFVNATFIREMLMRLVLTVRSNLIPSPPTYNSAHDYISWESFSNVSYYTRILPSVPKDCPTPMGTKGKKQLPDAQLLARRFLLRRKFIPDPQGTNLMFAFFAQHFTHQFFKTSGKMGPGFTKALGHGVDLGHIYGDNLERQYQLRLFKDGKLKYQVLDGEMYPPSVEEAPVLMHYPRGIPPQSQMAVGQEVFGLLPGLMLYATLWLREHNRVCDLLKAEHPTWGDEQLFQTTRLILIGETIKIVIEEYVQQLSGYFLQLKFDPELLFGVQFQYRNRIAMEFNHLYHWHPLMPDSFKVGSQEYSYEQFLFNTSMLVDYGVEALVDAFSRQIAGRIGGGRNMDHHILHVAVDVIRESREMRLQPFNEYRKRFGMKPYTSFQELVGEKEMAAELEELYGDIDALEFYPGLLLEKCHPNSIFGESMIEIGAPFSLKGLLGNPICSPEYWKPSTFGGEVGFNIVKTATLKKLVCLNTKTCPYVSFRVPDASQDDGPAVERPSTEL

[3] = molecular target: T1, Prostaglandin G/H synthase 2 (Homo sapiens, UniProt P35354); assay: Inhibition of human recombinant COX2 assessed as decrease in prostaglandin production using arachidonic acid as substrate pretreated for 15 mins followed by substrate addition and measured after 2 mins by enzyme immunoassay
T1 sequence (P35354 whole entry): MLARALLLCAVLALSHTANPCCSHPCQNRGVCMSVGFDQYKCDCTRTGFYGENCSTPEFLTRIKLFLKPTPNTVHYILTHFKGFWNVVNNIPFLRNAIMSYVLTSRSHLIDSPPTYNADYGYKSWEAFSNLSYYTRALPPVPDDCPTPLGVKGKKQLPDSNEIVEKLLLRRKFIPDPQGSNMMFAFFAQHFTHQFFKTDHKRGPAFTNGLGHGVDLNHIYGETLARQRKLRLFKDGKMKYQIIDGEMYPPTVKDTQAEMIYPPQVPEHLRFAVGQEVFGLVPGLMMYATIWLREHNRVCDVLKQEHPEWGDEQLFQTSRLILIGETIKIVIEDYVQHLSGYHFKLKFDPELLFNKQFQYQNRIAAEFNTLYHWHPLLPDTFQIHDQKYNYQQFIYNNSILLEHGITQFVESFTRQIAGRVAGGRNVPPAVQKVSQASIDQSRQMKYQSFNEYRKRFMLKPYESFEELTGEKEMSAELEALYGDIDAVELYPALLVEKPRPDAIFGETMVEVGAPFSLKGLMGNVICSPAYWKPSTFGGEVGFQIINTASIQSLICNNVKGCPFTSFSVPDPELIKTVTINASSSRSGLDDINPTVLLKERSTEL

Homo sapiens = species on record: Homo sapiens; assay: Selectivity index, ratio of IC50 for human recombinant COX1 to IC50 for human recombinant COX2 using arachidonic acid as substrate
Rattus norvegicus [4] = assay: Anti-inflammatory activity in albino rat model of carrageenan-induced paw edema assessed as inhibition of carrageenan-induced paw edema at 100 mg/kg, po administered as single dose prior to carrageenan challenge measured after 1 hr relative to control; format: functional
Rattus norvegicus [5] = assay: Anti-inflammatory activity in albino rat model of carrageenan-induced paw edema assessed as inhibition of carrageenan-induced paw edema at 100 mg/kg, po administered as single dose prior to carrageenan challenge measured after 3 hrs relative to control; format: functional
Rattus norvegicus [6] = assay: Anti-inflammatory activity in albino rat model of carrageenan-induced paw edema assessed as inhibition of carrageenan-induced paw edema at 100 mg/kg, po administered as single dose prior to carrageenan challenge measured after 4 hrs relative to control; format: functional
Rattus norvegicus [7] = assay: Anti-inflammatory activity in albino rat model of carrageenan-induced paw edema assessed as inhibition of carrageenan-induced paw edema at 100 mg/kg, po administered as single dose prior to carrageenan challenge measured after 8 hrs relative to control; format: functional
Rattus norvegicus [8] = assay: Anti-inflammatory activity in albino rat model of carrageenan-induced paw edema assessed as inhibition of carrageenan-induced paw edema at 100 mg/kg, po administered as single dose prior to carrageenan challenge measured after 12 hrs relative to control; format: functional
[9] = Ulcerogenic activity in rat assessed as ulcer index at 50 mg/kg, sc qd for 4 days post 18 hrs fasting measured after 4 days; format: toxicity, organism-based; conditions: in vivo, 96 h
[10] = Ulcerogenic activity in rat assessed as incidence of gastric ulceration at 50 mg/kg, sc qd for 4 days post 18 hrs fasting measured after 4 days relative to control; format: toxicity, organism-based; conditions: in vivo, 96 h
[11] = Ulcerogenic activity in rat assessed as average number of ulcers formed at 50 mg/kg, sc qd for 4 days post 18 hrs fasting measured after 4 days; format: toxicity, organism-based; conditions: in vivo, 96 h
[12] = Ulcerogenic activity in rat assessed as average severity of ulcers formed at 50 mg/kg, sc qd for 4 days post 18 hrs fasting measured after 4 days; format: toxicity, organism-based; conditions: in vivo, 96 h
[13] = Ulcerogenic activity in rat assessed as effect on gastric mucosa at 50 mg/kg by hematoxylin and eosin staining based assay; format: toxicity, organism-based; conditions: in vivo
[14] = Ulcerogenic activity in rat assessed as effect on parietal cells at 50 mg/kg by hematoxylin and eosin staining based assay; format: toxicity, organism-based; conditions: in vivo
[15] = Ulcerogenic activity in rat assessed as effect on gastric submucosa at 50 mg/kg by hematoxylin and eosin staining based assay; format: toxicity, organism-based; conditions: in vivo
[16] = Hepatotoxicity in rat assessed as effect on central veins in liver at 50 mg/kg by hematoxylin and eosin staining based assay; format: toxicity, organism-based; conditions: in vivo
[17] = Hepatotoxicity in rat assessed as effect on portal veins at 50 mg/kg by hematoxylin and eosin staining based assay; format: toxicity, organism-based; conditions: in vivo
[18] = Hepatotoxicity in rat assessed as effect on bile ducts at 50 mg/kg by hematoxylin and eosin staining based assay; format: toxicity, organism-based; conditions: in vivo
[19] = Hepatotoxicity in rat assessed as effect on hepatocytes in periportal area at 50 mg/kg by hematoxylin and eosin staining based assay; format: toxicity, organism-based; conditions: in vivo
[20] = Nephrotoxicity in rat assessed as effect on glomeruli at 50 mg/kg surrounded by Bowmann's capsule by hematoxylin and eosin staining based assay; format: toxicity, organism-based; conditions: in vivo
[21] = Nephrotoxicity in rat assessed as effect on proximal tubule at 50 mg/kg by hematoxylin and eosin staining based assay; format: toxicity, organism-based; conditions: in vivo
[22] = Nephrotoxicity in rat assessed as effect on distal tubule at 50 mg/kg by hematoxylin and eosin staining based assay; format: toxicity, organism-based; conditions: in vivo

SMILES | Activity [1] | inhibition in vivo at 100 mg/kg (Rattus norvegicus [4]) [%] | inhibition in vivo at 100 mg/kg (Rattus norvegicus [5]) [%] | inhibition in vivo at 100 mg/kg (Rattus norvegicus [6]) [%] | inhibition in vivo at 100 mg/kg (Rattus norvegicus [7]) [%] | inhibition in vivo at 100 mg/kg (Rattus norvegicus [8]) [%] | UI [9] | Activity [10] [%] | Activity [11] | Activity [12] | Activity [13] | Activity [14] | Activity [15] | Activity [16] | Activity [17] | Activity [18] | Activity [19] | Activity [20] | Activity [21] | Activity [22] | further results
N#CC1=C(N)OC(c2ccccc2)=CC1c1cn(-c2ccccc2)nc1-c1ccc(OCc2ccccc2)cc1 (stereo unspecified) | Toxic | 69 | 59.5 | 54.5 | 42.9 | 28.2 | 5.2 | 4 | 0.8 | 0.4 | Toxic | Toxic | Toxic | Toxic | Toxic | Toxic | Toxic | Toxic | Toxic | Toxic | pIC50 [2]: 5.40; pIC50 [3]: 6.14; Ratio IC50 (Homo sapiens): 5.58
O=C(/C=C/c1cn(-c2ccccc2)nc1-c1ccc(OCc2ccccc2)cc1)c1ccccc1 | Non-Toxic | 81.7 | 58.2 | 51.2 | 23.8 | 32.5 | 2.8 | 2 | 0.4 | 0.4 | Non-Toxic | Non-Toxic | Non-Toxic | Non-Toxic | Non-Toxic | Non-Toxic | Non-Toxic | Non-Toxic | Non-Toxic | Non-Toxic | pIC50 [2]: 4.81; pIC50 [3]: 5.73; Ratio IC50 (Homo sapiens): 8.22
Cc1ccc(-c2cc(C(F)(F)F)nn2-c2ccc(S(N)(=O)=O)cc2)cc1 [CELECOXIB] | Toxic | 56.1 | 58.5 | 48.1 | 44.9 | 34.6 | 3.2 | 2 | 0.6 | 0.6 | Toxic | Toxic | Toxic | Toxic | Toxic | Toxic | Toxic | Toxic | Toxic | Toxic | 
S=c1nc(-c2ccc(Cl)cc2)cc(-c2cn(-c3ccccc3)nc2-c2ccc(OCc3ccccc3)cc2)[nH]1 | Toxic | 42.2 | 54.4 | 41.8 | 24.7 | 15.5 | 6.4 | 4 | 1.2 | 1.2 | Toxic | Toxic | Toxic | Toxic | Toxic | Toxic | Toxic | Toxic | Toxic | Toxic | pIC50 [2]: 5.14; pIC50 [3]: 5.96; Ratio IC50 (Homo sapiens): 6.54
O=C(/C=C/c1cn(-c2ccccc2)nc1-c1ccc(OCc2ccccc2)cc1)c1ccc(Cl)cc1 | Non-Toxic | 89.7 | 77.1 | 69.9 | 48.6 | 41.4 | 2.4 | 2 | 0.2 | 0.2 | Non-Toxic | Non-Toxic | Non-Toxic | Non-Toxic | Non-Toxic | Non-Toxic | Non-Toxic | Non-Toxic | Non-Toxic | Non-Toxic | pIC50 [2]: 5.25; pIC50 [3]: 6.22; Ratio IC50 (Homo sapiens): 9.32
Nc1nc(-c2ccccc2)cc(-c2cn(-c3ccccc3)nc2-c2ccc(OCc3ccccc3)cc2)n1 | Toxic | 82 | 74.4 | 83.9 | 40.2 | 33.6 | 3.2 | 2 | 0.6 | 0.6 | Toxic | Toxic | Toxic | Toxic | Toxic | Toxic | Toxic | Toxic | Toxic | Toxic | pIC50 [2]: 4.78; pIC50 [3]: 5.55; Ratio IC50 (Homo sapiens): 5.89
COc1ccc2c(c1)c(CC(=O)O)c(C)n2C(=O)c1ccc(Cl)cc1 [INDOMETHACIN] | Toxic | 80.2 | 79.8 | 65.2 | 62.5 | 55.6 | 17.6 | 10 | 5 | 2.6 | Toxic | Toxic | Toxic | Toxic | Toxic | Toxic | Toxic | Toxic | Toxic | Toxic | 
CC(=O)n1nc(-c2ccccc2)cc1-c1cn(-c2ccccc2)nc1-c1ccc(OCc2ccccc2)cc1 | Toxic | 78.3 | 64.6 | 59.8 | 55.2 | 57.7 | 6 | 4 | 0.8 | 1.2 | Toxic | Toxic | Toxic | Toxic | Toxic | Toxic | Toxic | Toxic | Toxic | Toxic | pIC50 [2]: 4.89; pIC50 [3]: 5.71; Ratio IC50 (Homo sapiens): 6.74
Clc1ccc(-c2cc(-c3cn(-c4ccccc4)nc3-c3ccc(OCc4ccccc4)cc3)on2)cc1 | Toxic | 69.8 | 70.9 | 42.9 | 48.7 | 45 | 8.4 | 6 | 1.2 | 1.2 | Toxic | Toxic | Toxic | Toxic | Toxic | Toxic | Toxic | Toxic | Toxic | Toxic | pIC50 [2]: 5.54; pIC50 [3]: 5.90; Ratio IC50 (Homo sapiens): 2.31
